Test results from ChEMBL document CHEMBL3596152, “Synthesis of 1-O-acetylbritannilactone analogues from Inula britannica and in vitro evaluation of their anticancer potential” (Medchemcomm, 2014).
Calls of active or inactive are those of the source. No cut-off for these calls is given here.

What was measured:
HCT-116 = assay: Cytotoxicity against human HCT116 cells assessed as reduction in cell viability incubated for 72 hrs by SRB assay; assay type: functional, cell-based; conditions: HCT-116, 72 h
HeLa [1] = assay: Cytotoxicity against human HeLa cells assessed as reduction in cell viability incubated for 72 hrs by SRB assay; assay type: functional, cell-based
[2] = Cytotoxicity against human SGC7901 cells assessed as reduction in cell viability incubated for 72 hrs by SRB assay; assay type: functional, cell-based; conditions: SGC-7901, 72 h
HeLa [3] = assay: Cytotoxicity against human HeLa cells assessed as reduction in cell viability at 1.57 to 12.5 uM incubated for 72 hrs by SRB assay; assay type: functional, cell-based
HeLa [4] = assay: Cytotoxicity against human HeLa cells assessed as reduction in cell viability at 1.57 to 12.5 uM in presence of 1 mM NAC incubated for 72 hrs by SRB assay; assay type: functional, cell-based
[5] = Thiol reactivity in DMSO-d6 solution at 0.05 mmol in presence of beta-mercaptoethanol by 1H NMR Michael acceptor assay
[6] = Thiol reactivity in DMSO-d6 solution assessed as formation of 1,6-O,O-diacetyl-13-(2-hydroxyethylthiol) britannilactone at 0.05 mmol in presence of beta-mercaptoethanol by 1H NMR Michael acceptor assay
[7] = Thiol reactivity in DMSO-d6 solution assessed as formation of 1-O-acetyl-6-O-benzoyl-13-(2-hydroxyethylthiol) britannilactone at 0.05 mmol in presence of beta-mercaptoethanol by 1H NMR Michael acceptor assay
HeLa [8] = assay: Induction of apoptosis in human HeLa cells assessed as early apoptotic cells levels at 3 uM incubated for 72 hrs by annexin V-FITC and propidium iodide staining based flow cytometry (reference value: 1.4%); assay type: functional
HeLa [9] = assay: Induction of apoptosis in human HeLa cells assessed as late apoptotic cells levels at 3 uM incubated for 72 hrs by annexin V-FITC and propidium iodide staining based flow cytometry (reference value: 2.8%); assay type: functional
HeLa [10] = assay: Induction of apoptosis in human HeLa cells assessed as necrotic cells levels at 3 uM incubated for 72 hrs by annexin V-FITC and propidium iodide staining based flow cytometry (reference value: 0.2%); assay type: functional
HeLa [11] = assay: Induction of apoptosis in human HeLa cells assessed as increase in cleaved caspase-3 levels at 3 to 12 uM incubated for 48 hrs by Western blotting method; assay type: functional, cell-based
HeLa [12] = assay: Induction of cell cycle arrest in human HeLa cells assessed as accumulation at G0/G1 phase at 5 uM incubated for 24 hrs by propidium iodide staining based flow cytometry (reference value: 31.1%); assay type: functional
HeLa [13] = assay: Induction of cell cycle arrest in human HeLa cells assessed as accumulation at S pahse at 5 uM incubated for 24 hrs by propidium iodide staining based flow cytometry (reference value: 40.5%); assay type: functional
HeLa [14] = assay: Induction of cell cycle arrest in human HeLa cells assessed as accumulation at G2/M pahse at 5 uM incubated for 24 hrs by propidium iodide staining based flow cytometry (reference value: 28.4%); assay type: functional
HeLa [15] = assay: Induction of cell cycle arrest in human HeLa cells assessed as accumulation at G0/G1 phase at 10 uM incubated for 24 hrs by propidium iodide staining based flow cytometry (reference value: 31.1%); assay type: functional
HeLa [16] = assay: Induction of cell cycle arrest in human HeLa cells assessed as accumulation at S pahse at 10 uM incubated for 24 hrs by propidium iodide staining based flow cytometry (reference value: 40.5%); assay type: functional
HeLa [17] = assay: Induction of cell cycle arrest in human HeLa cells assessed as accumulation at G2/M pahse at 10 uM incubated for 24 hrs by propidium iodide staining based flow cytometry (reference value: 28.4%); assay type: functional
HeLa [18] = assay: Induction of cell cycle arrest in human HeLa cells assessed as accumulation at G0/G1 phase at 20 uM incubated for 24 hrs by propidium iodide staining based flow cytometry (reference value: 31.1%); assay type: functional
HeLa [19] = assay: Induction of cell cycle arrest in human HeLa cells assessed as accumulation at S pahse at 20 uM incubated for 24 hrs by propidium iodide staining based flow cytometry (reference value: 40.5%); assay type: functional
HeLa [20] = assay: Induction of cell cycle arrest in human HeLa cells assessed as accumulation at G2/M pahse at 20 uM incubated for 24 hrs by propidium iodide staining based flow cytometry (reference value: 28.4%); assay type: functional
HeLa [21] = assay: Induction of apoptosis in human HeLa cells assessed as necrotic cells levels at 6 uM incubated for 72 hrs by annexin V-FITC and propidium iodide staining based flow cytometry (reference value: 0.2%); assay type: functional
HeLa [22] = assay: Induction of apoptosis in human HeLa cells assessed as late apoptotic cells levels at 6 uM incubated for 72 hrs by annexin V-FITC and propidium iodide staining based flow cytometry (reference value: 2.8%); assay type: functional
HeLa [23] = assay: Induction of apoptosis in human HeLa cells assessed as early apoptotic cells levels at 6 uM incubated for 72 hrs by annexin V-FITC and propidium iodide staining based flow cytometry (reference value: 1.4%); assay type: functional
HeLa [24] = assay: Induction of apoptosis in human HeLa cells assessed as increase in cleaved caspase-3 levels at 3 uM incubated for 48 hrs by Western blotting method; assay type: functional, cell-based
HeLa [25] = assay: Induction of apoptosis in human HeLa cells assessed as early apoptotic cells levels at 10 uM incubated for 72 hrs by annexin V-FITC and propidium iodide staining based flow cytometry (reference value: 1.4%); assay type: functional
HeLa [26] = assay: Induction of apoptosis in human HeLa cells assessed as late apoptotic cells levels at 10 uM incubated for 72 hrs by annexin V-FITC and propidium iodide staining based flow cytometry (reference value: 2.8%); assay type: functional
HeLa [27] = assay: Induction of apoptosis in human HeLa cells assessed as necrotic cells levels at 10 uM incubated for 72 hrs by annexin V-FITC and propidium iodide staining based flow cytometry (reference value: 0.2%); assay type: functional

C=C1C(=O)O[C@@H]2CC(C)=C([C@@H](C)CCCOC(C)=O)[C@@H](O)[C@H]12
IC50 (HCT-116): 36.1 µM
IC50 (HeLa [1]): 32.6 µM
IC50 [2]: 47.8 µM

C=C1C(=O)O[C@@H]2CC(C)=C([C@@H](C)CCCOC(C)=O)[C@@H](OC(=O)CN(CC)CC)[C@H]12
IC50 (HCT-116): 13.1 µM
IC50 (HeLa [1]): 10.7 µM
IC50 [2]: 11.6 µM

C=C1C(=O)O[C@@H]2CC(C)=C([C@@H](C)CCCOC(C)=O)[C@@H](OC(=O)COc3ccc(C(=O)OCCC)cc3)[C@H]12
IC50 (HCT-116): 37.5 µM
IC50 (HeLa [1]): 22.9 µM
IC50 [2]: 27.7 µM

C=C1C(=O)O[C@@H]2CC(C)=C([C@@H](C)CCCOC(C)=O)[C@@H](OC(=O)CN3CCCC3)[C@H]12
IC50 (HCT-116): 20.5 µM
IC50 (HeLa [1]): 12.7 µM
IC50 [2]: 18.4 µM

C=C1C(=O)O[C@@H]2CC(C)=C([C@@H](C)CCCOC(C)=O)[C@@H](OC(=O)COc3ccc(C(C)=O)cc3)[C@H]12
IC50 (HCT-116): 40.1 µM
IC50 (HeLa [1]): 43.9 µM
IC50 [2]: 49.6 µM

CC(=O)OCCC[C@H](C)C1=C(C)C[C@H]2OC(=O)C(CSCCO)[C@H]2[C@@H]1OC(C)=O (stereo partly specified)
IC50 (HCT-116): > 100 µM
IC50 (HeLa [1]): > 100 µM
IC50 [2]: > 100 µM

CC(=O)OCCC[C@H](C)C1=C(C)C[C@H]2OC(=O)C(CSCCO)[C@H]2[C@@H]1OC(=O)c1ccccc1 (stereo partly specified)
IC50 (HCT-116): > 100 µM
IC50 (HeLa [1]): > 100 µM
IC50 [2]: > 100 µM

C=C1C(=O)O[C@@H]2CC(C)=C([C@@H](C)CCCOC(C)=O)[C@@H](OC(=O)CCl)[C@H]12
IC50 (HCT-116): 18.8 µM
IC50 (HeLa [1]): 28.5 µM
IC50 [2]: 26.5 µM

C=C1C(=O)O[C@@H]2CC(C)=C([C@@H](C)CCCOC(C)=O)[C@@H](OC(=O)c3ccc([N+](=O)[O-])cc3)[C@H]12
IC50 (HeLa [1]): 11.3 µM

C=C1C(=O)O[C@@H]2CC(C)=C([C@@H](C)CCCOC(C)=O)[C@@H](OC(=O)c3ccccc3)[C@H]12
Activity (HeLa [3]): Dose-dependent effect
Activity (HeLa [4]): inactive
Activity [5]: Active
Activity [6]: Active
Activity [7]: Active
Activity (HeLa [8]): 3.9%
Activity (HeLa [9]): 6.9%
Activity (HeLa [10]): 0.3%
Activity (HeLa [11]): Dose-dependent effect
Activity (HeLa [12]): 29.5%
Activity (HeLa [13]): 41.3%
Activity (HeLa [14]): 29.2%
Activity (HeLa [15]): 28.7%
Activity (HeLa [16]): 18.1%
Activity (HeLa [17]): 53.2%
Activity (HeLa [18]): 20.7%
Activity (HeLa [19]): 15.6%
Activity (HeLa [20]): 63.7%
Activity (HeLa [21]): 3.5%
Activity (HeLa [22]): 30%
Activity (HeLa [23]): 4.5%
IC50 (HCT-116): 10.5 µM
IC50 (HeLa [1]): 5.19 µM
IC50 [2]: 9.93 µM

C=C1C(=O)O[C@@H]2CC(C)=C([C@@H](C)CCCOC(C)=O)[C@@H](OC(=O)c3ccccc3F)[C@H]12
IC50 (HCT-116): 21.1 µM
IC50 (HeLa [1]): 17 µM
IC50 [2]: 19.3 µM

C=C1C(=O)O[C@@H]2CC(C)=C([C@@H](C)CCCOC(C)=O)[C@@H](OC(=O)COc3ccc4c(C(F)(F)F)noc4c3)[C@H]12
IC50 (HCT-116): 21.5 µM
IC50 (HeLa [1]): 19.2 µM
IC50 [2]: 19.7 µM

C=C1C(=O)O[C@@H]2CC(C)=C([C@@H](C)CCCOC(C)=O)[C@@H](OC(=O)CN3CCCCC3)[C@H]12
IC50 (HCT-116): 13.9 µM
IC50 (HeLa [1]): 10.3 µM
IC50 [2]: 11.5 µM

C=C1C(=O)O[C@@H]2CC(C)=C([C@@H](C)CCCOC(C)=O)[C@@H](OC(=O)c3ccc(C)cc3)[C@H]12
IC50 (HeLa [1]): 5.46 µM

C=C1C(=O)O[C@@H]2CC(C)=C([C@@H](C)CCCOC(C)=O)[C@@H](OC(=O)COc3ccc4c(CC)noc4c3)[C@H]12
IC50 (HCT-116): 18.3 µM
IC50 (HeLa [1]): 21.7 µM
IC50 [2]: 21.2 µM

C=C1C(=O)O[C@@H]2CC(C)=C([C@@H](C)CCCOC(C)=O)[C@@H](OC(=O)c3cccc(F)c3)[C@H]12
IC50 (HCT-116): 14.5 µM
IC50 (HeLa [1]): 11.8 µM
IC50 [2]: 12.9 µM

C=C1C(=O)O[C@@H]2CC(C)=C([C@@H](C)CCCOC(C)=O)[C@@H](OC(=O)COc3ccc([N+](=O)[O-])cc3[N+](=O)[O-])[C@H]12
IC50 (HCT-116): > 100 µM
IC50 (HeLa [1]): > 100 µM
IC50 [2]: > 100 µM

COc1cc([C@@H]2c3cc4c(cc3[C@@H](O[C@@H]3O[C@@H]5CO[C@@H](C)O[C@H]5[C@H](O)[C@H]3O)[C@H]3COC(=O)[C@H]23)OCO4)cc(OC)c1O [ETOPOSIDE]
Activity (HeLa [24]): Active
IC50 (HCT-116): 2.13 µM
IC50 (HeLa [1]): 2.97 µM
IC50 [2]: 6.56 µM

C=C1C(=O)O[C@@H]2CC(C)=C([C@@H](C)CCCOC(C)=O)[C@@H](OC(=O)c3ccc(F)cc3)[C@H]12
IC50 (HCT-116): 14.9 µM
IC50 (HeLa [1]): 12 µM
IC50 [2]: 13.6 µM

O=c1[nH]cc(F)c(=O)[nH]1 [FLUOROURACIL]
IC50 (HCT-116): 4.9 µM
IC50 (HeLa [1]): 4.71 µM
IC50 [2]: 0.86 µM

C=C1C(=O)O[C@@H]2CC(C)=C([C@@H](C)CCCOC(C)=O)[C@@H](OC(=O)c3cc(OC)c(OC)c(OC)c3)[C@H]12
IC50 (HeLa [1]): 6.54 µM

C=C1C(=O)O[C@@H]2CC(C)=C([C@@H](C)CCCOC(C)=O)[C@@H](OC(=O)CN3CCOCC3)[C@H]12
IC50 (HCT-116): 16.3 µM
IC50 (HeLa [1]): 13.9 µM
IC50 [2]: 14.1 µM

C=C1C(=O)O[C@@H]2CC(C)=C([C@@H](C)CCCOC(C)=O)[C@@H](OC(=O)COc3cccc(C(C)=O)c3)[C@H]12
IC50 (HCT-116): 45.5 µM
IC50 (HeLa [1]): 38.6 µM
IC50 [2]: 46.1 µM

C=C1C(=O)O[C@@H]2CC(C)=C([C@@H](C)CCCOC(C)=O)[C@@H](OC(C)=O)[C@H]12
Activity [5]: Active
Activity [6]: Active
Activity [7]: Active
Activity (HeLa [25]): 6.9%
Activity (HeLa [26]): 24.4%
Activity (HeLa [27]): 11%
IC50 (HCT-116): 10.1 µM
IC50 (HeLa [1]): 11.2 µM
IC50 [2]: 15.9 µM

C=C1C(=O)O[C@@H]2CC(C)=C([C@@H](C)CCCOC(C)=O)[C@@H](OC(=O)COc3cccc4[nH]nnc34)[C@H]12
IC50 (HCT-116): 23.7 µM
IC50 (HeLa [1]): 23 µM
IC50 [2]: 21.1 µM

C=C1C(=O)O[C@@H]2CC(C)=C([C@@H](C)CCCOC(C)=O)[C@@H](OC(=O)COc3cccc4cccnc34)[C@H]12
IC50 (HCT-116): 12.1 µM
IC50 (HeLa [1]): 8.94 µM
IC50 [2]: 14.3 µM

C=C1C(=O)O[C@@H]2CC(C)=C([C@@H](C)CCCOC(C)=O)[C@@H](OC(=O)c3ccc(OC)cc3)[C@H]12
IC50 (HeLa [1]): 8.85 µM
